The results in this text go back to ChEMBL document CHEMBL1141327, “Planktocyclin, a cyclooctapeptide protease inhibitor produced by the freshwater cyanobacterium Planktothrix rubescens” (J Nat Prod, 2007).

pIC50: −log10 of the molar value. Peptide text beside a SMILES is read from it.

What is called pIC50 is the IC50 on a negative log10 scale, so that one unit is a factor of ten.

Test [1] has as its target Cathepsin B (Bos taurus, UniProt P07688). The experiment in a line: Inhibition of bovine Cathepsin B.
The nature of test [2]: Inhibition of bovine alpha chymotrypsin. Further details: species or system Bos taurus.
A short description of test [3]: Inhibition of porcine trypsin. More on the design: species or system Sus scrofa.
In test [4] the target is Caspase-8 (Homo sapiens, UniProt Q14790). Put plainly: Inhibition of human recombinant caspase 8 expressed in Escherichia coli.
Chain of Caspase-8 (Q14790 217-374 limits assumed): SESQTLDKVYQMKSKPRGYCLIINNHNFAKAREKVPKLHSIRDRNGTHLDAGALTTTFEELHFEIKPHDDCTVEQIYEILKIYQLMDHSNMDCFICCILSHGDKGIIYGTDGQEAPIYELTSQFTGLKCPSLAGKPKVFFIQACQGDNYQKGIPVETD
Chain of Caspase-8 (Q14790 385-479 limits assumed): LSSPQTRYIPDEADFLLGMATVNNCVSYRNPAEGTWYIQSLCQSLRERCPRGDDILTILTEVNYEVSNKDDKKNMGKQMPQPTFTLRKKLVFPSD

For the compound `CSCC[C@@H]1NC(=O)[C@H](C(C)C)NC(=O)[C@H](CC(C)C)NC(=O)CNC(=O)[C@@H]2CCCN2C(=O)[C@H](C(C)C)NC(=O)CNC(=O)[C@H](Cc2ccccc2)NC1=O` [PLANKTOCYCLIN] (cyclo(FGVPGLVM)), the pIC50 was less than 3.30 in test [1], 5.00 in test [2], 6.98 in test [3] and 4.03 in test [4].
